“And” between values parts separate entries of the source, which are not always exact repeats. Equal entries are not always repeated.
Experiments:
[1] = test system: Anas platyrhynchos; conditions: reproductive
[2] = test system: Apis mellifera; conditions: acute, mortality
[3] = test system: Canidae; conditions: subchronic; duration: 90 days; oral; Dog Other; organ weight
[4] = test system: Colinus virginianus
[5] = test system: Daphnia magna; conditions: chronic/long-term; duration: 21 days; reproduction
[6] = test system: Folsomia candida; conditions: chronic/long-term
[7] = test system: Oncorhynchus mykiss
[8] = test system: Rattus norvegicus; conditions: for LD50: acute, mortality
[9] = test system: Tagia sp.

COCC(=O)N(c1c(C)cccc1C)[C@H](C)C(=O)OC [Metalaxyl-M]
NOEL [1]: 117 mg/kg-day
LD50 ([2]; dermal): > 100 µg/piece
LD50 ([2]; oral, unspecified): > 97.3 µg/piece
NOAEL [3]: 8 mg/kg-day
LC50 ([4]; acute, oral, diet, mortality): > 5620 mg/kg
LD50 ([4]; acute, oral, mortality): 1420 mg/kg-day and 981 mg/kg-day and 1180 mg/kg-day
NOEL ([4]; reproduction developmental): 8.4 mg/kg-day
NOEC [5]: 25 mg/L
NOEC [6]: 125 mg/kg
LC50 ([7]; acute, duration: 96 hours, mortality): > 100 µg/mL
NOEC ([7]; chronic/long-term, duration: 28 days, growth): 50 mg/L
LD50 ([8]; F): 375 mg/kg-day
LD50 ([8]; M): 953 mg/kg-day
NOAEL ([8]; reproduction developmental, body weight): 50 mg/kg-day
LC50 ([9]; acute, duration: 14 days, mortality): 830 mg/kg
NOEC ([9]; chronic/long-term, duration: 8 weeks): 35.6 mg/kg

From EPA's ToxValDB 9.5 (doi:10.2903/j.efsa.2015.3999)
